Laboratory results: ChEMBL document CHEMBL5665440, “ASAP - In vitro liver microsomal stability” (2024)
Where “and” joins values, the source holds several entries; their conditions need not be identical. Identical values can stand only once.

Tests used:
[1] = (§1) Human liver microsomal stability of compound in microsomal protein, PBS buffer pH 7.4, NADPH, glucose-6-phosphate and glucose-6-phosphate dehydrogenase media. Aliquotes were taken at 5 time points and after stopping the reaction, supernatants were analyzed using HPLC coupled with a tandem mass spectrometer. The elimination constant, half-life, and intrinsic clearance are determined as results using linear regression analysis.; assay type: ADME, microsomes, Microsome; conditions: for half-life / microsomal CLint: liver microsomes
[2] = as §1, with “Mouse” for “Human”; assay type: ADME, microsomes, Microsome; conditions: for half-life / microsomal CLint: liver microsomes; for Remaining / Remaining (without cofactor): microsomes
Throughout, for Remaining (without cofactor): time not given here.
Throughout, for Remaining: time not given here.

| Structure (SMILES) | CLint ([1]; microsomes) | Remaining ([1]; microsomes) | Remaining (without cofactor) ([1]; microsomes) | T1/2 ([1]; microsomes) | half-life [2] [h] | microsomal CLint [2] [µL/min/mg] | Remaining [2] | Remaining (without cofactor) [2] | half-life [1] [h] | microsomal CLint [1] [µL/min/mg] |
| --- | --- | --- | --- | --- | --- | --- | --- | --- | --- | --- |
| CC(C)NC(=O)[C@H](Nc1ccc2c(c1)CNC2)c1cc(Cl)cc2[nH]c(-c3ccccc3)nc12 | 23.218 µL/min/mg and < 10 µL/min/mg | 67.537% and 102.526% | 101.395% and 117.42% | 1.199 h and > 2.888 h | 2.52 | 11 | 84% | 98.417% |  |  |
| O=C(NCC(F)F)[C@H](Nc1ccc2c(c1)CNC2)c1cc(Cl)cc(C2CC2)c1 |  | 87.774% and 93.401% and 87.317% and 91.082% | 101.867% and 96.07% and 104.631% and 112.978% |  | > 2.89 | < 10 | 90.622% and 93.184% | 90.232% and 99.155% | > 2.89 | < 10 |
| O=C(NCC(F)F)[C@H](Nc1ccc2c(c1)CNC2)c1cc(Cl)cc2c1CCC2 |  | 80.194% | 105.323% |  | 0.882 | 31.6 | 60.623% | 103.851% | 1.99 | 14 |
| O=C(Nc1cc2c(c(-c3c[nH]c(=O)c(F)c3)c1)CNC2)c1cc(F)cc2[nH]ncc12 |  | 95.49% | 97.444% |  | 0.115 | 243 | 2.163% | 108.846% | > 2.89 | < 10 |
| COCc1cc(Cl)cc([C@H](Nc2ccc3c(c2)CNC3)C(=O)NCC(F)F)c1 |  | 94.228% | 112.017% |  | > 2.89 | < 10 | 97.4% | 108.672% | > 2.89 | < 10 |
| NCc1cccc(NC(=O)C[C@H](NC(=O)OCc2ccccc2)c2ccc(OCc3ccccc3)c(Br)c2)c1 |  | 79.862% | 98.099% |  | > 2.89 | < 10 | 98.216% | 98.077% | 2.25 | 12.4 |
| N#CCCNC(=O)[C@H](Nc1ccc2c(c1)CNC2)c1cc(Cl)cc(C2CC2)c1 |  | 90.394% | 113.364% |  | > 2.89 | < 10 | 93.147% | 101.58% | > 2.89 | < 10 |
| O=C(NCCCF)[C@H](Nc1ccc2c(c1)CNC2)c1cc(Cl)cc(C2CC2)c1 |  | 77.399% | 95.756% |  | 1.6 | 17.4 | 76.547% | 97.886% | 1.75 | 15.9 |
| O=C(NCC(F)F)[C@H](Nc1ccc2c(c1)CNC2)c1cc(Cl)cc2ccoc12 |  | 100.816% | 103.719% |  | > 2.89 | < 10 | 93.727% | 105.352% | > 2.89 | < 10 |
| N#Cc1cccc(-c2nc3c(C(=O)Nc4ccc5c(c4)CNC5)cc(F)cc3[nH]2)c1 |  | 89.52% | 98.721% |  | 1.27 | 22 | 68.981% | 99.493% | > 2.89 | < 10 |
| CNC(=O)[C@H](Nc1ccc2c(c1)CNC2)c1cc(Cl)cc(C2CC2)c1 |  | 90.859% | 112.656% |  | > 2.89 | < 10 | 87.863% | 93.167% | > 2.89 | < 10 |
| O=C(Nc1cc2c(c(C3=CCOCC3)c1)CNC2)c1cc(F)cc2[nH]ncc12 |  | 90.19% | 105.644% |  | 0.184 | 152 | 8.587% | 96.063% | > 2.89 | < 10 |
| O=C(NCC(F)F)[C@H](Nc1ccc2c(c1)CNC2)c1cc(Br)cc2nc[nH]c12 |  | 100.118% | 106.151% |  | > 2.89 | < 10 | 93.302% | 93.905% | > 2.89 | < 10 |
| O=C(Nc1ccc2c(c1)CNC2)c1cc(Cl)cc2cn[nH]c12 |  | 105.314% | 104.393% |  | 0.516 | 54 | 41.728% | 98.046% | > 2.89 | < 10 |
| CCCC[C@@H](NC(=O)OC(C)(C)C)C(=O)N[C@@H](C(=O)NCc1ccc(CN)cc1)c1ccc(OCc2ccccc2)cc1 |  | 40.588% | 99.499% |  | 3.11 | 7.44 | 87.681% | 94.521% | 0.497 | 56 |
| CNC(=O)c1cc(Br)cc([C@H](Nc2ccc3c(c2)CNC3)C(=O)NCC(F)F)c1 |  | 96.629% | 106.229% |  | > 2.89 | < 10 | 92.112% | 95.032% | > 2.89 | < 10 |
| O=C(O)c1cc(Cl)ccc1NS(=O)(=O)c1ccc(Oc2ccccc2Cl)cc1 |  | 8.181% | 110.535% |  | 1.82 | 13 | 79.49% | 100.358% | 0.18 | 155 |
| CNC(=O)c1cc(Cl)c(F)cc1NS(=O)(=O)c1ccc(Oc2ccccc2Cl)cc1 |  | 32.8% | 112.27% |  | 0.506 | 45.6 | 39.045% | 100.041% | 0.39 | 71.3 |
| O=C(Nc1ccc2c(c1)CNC2)c1cc(F)cc2[nH]c(-c3ccc(F)cc3)nc12 |  | 90% | 94.287% |  | 0.756 | 36.8 | 54.776% | 103.385% | > 2.89 | < 10 |
| O=C(Nc1cc2c(cc1Br)CNC2)c1cc(F)cc2[nH]ncc12 |  | 83.663% | 98.81% |  | 0.093 | 299 | 0.737% | 95.151% | 2.44 | 11.4 |
